Some test systems named below: MDA-MB-231 breast; PC-3 prostate; OVCAR-3 ovarian; SK-MEL-5 melanoma; HCC-2998 colon; MCF7 breast; OVCAR-8 ovarian; NCI-H522 lung; U251 CNS; TK-10 renal.
Holding throughout (test): NCI-60 cell line screen, 48 h

Where “and” joins values, the source holds several entries; their conditions need not be identical. Equal entries are not always repeated.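 The compound was tested at five concentrations on cells cultured in 96-well plates, with a 48-hour exposure period. GI50 = concentration required for 50% inhibition of growth. TGI: total growth inhibition.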

These results are taken from PubChem BioAssay (NCI).

As for `Cc1ccc(N)cc1[As]=[As]c1cc(N)ccc1C` (configuration not stated), the GI50 in the assay with MDA-MB-231 breast is 1.35 µM; in the assay on PC-3 prostate, 1.71 µM; in the assay with OVCAR-3 ovarian it was 1.62 µM; with SK-MEL-5 melanoma it was 1.51 µM; in the assay with HCC-2998 colon, 1.93 µM; in the assay with MCF7 breast, 0.537 µM. For the same compound, the GI50 with OVCAR-8 ovarian was 1.57 µM; in the assay with NCI-H522 lung, 0.122 µM; in the assay on U251 CNS it was 1.35 µM; with TK-10 renal, 1.47 µM. Also, the TGI in the assay on MDA-MB-231 breast came out at 2.82 µM; in the assay with PC-3 prostate it was 3.38 µM; with OVCAR-3 ovarian, 3.02 µM; in the assay with SK-MEL-5 melanoma, 2.91 µM; in the assay with HCC-2998 colon it was 3.58 µM; with MCF7 breast it was 2.75 µM. The TGI in the assay on OVCAR-8 ovarian was found to be 2.98 µM; with NCI-H522 lung it was 0.268 µM; in the assay on U251 CNS, 2.69 µM; in the assay with TK-10 renal, 2.81 µM.
On to `C#C[C@@]1(O)[C@@H](CO)O[C@@H](n2cc(Br)c3c(Cl)ccnc32)[C@@H]1O`, for which the GI50 in the assay on MDA-MB-231 breast is 0.289 µM; with PC-3 prostate it was 0.217 µM; in the assay on OVCAR-3 ovarian, 0.621 µM; in the assay on SK-MEL-5 melanoma, 39.7 µM; in the assay with HCC-2998 colon, 2.89 µM; with MCF7 breast, 0.394 µM. Further, the GI50 was 0.343 µM in the assay on OVCAR-8 ovarian, 3.64 µM in the assay on NCI-H522 lung, 40 µM in the assay on U251 CNS and over 67 µM with TK-10 renal. Moreover, the TGI in the assay with MDA-MB-231 breast was 1.94 µM; in the assay with PC-3 prostate, 0.874 µM; with OVCAR-3 ovarian, over 75 µM; in the assay with SK-MEL-5 melanoma it was over 100 µM; in the assay with HCC-2998 colon, over 100 µM; with MCF7 breast it was over 31.6 µM. Also, the TGI is 1.91 µM in the assay on OVCAR-8 ovarian, over 100 µM in the assay with NCI-H522 lung, over 100 µM in the assay on U251 CNS and over 100 µM in the assay on TK-10 renal.
As for `Cc1nc2sc(C(=O)Nc3cccc(Br)c3C)c(N)c2cc1C(O)c1ccccc1` (configuration not stated), the GI50 with MDA-MB-231 breast is 0.0473 µM; in the assay on PC-3 prostate it was 0.0462 µM; in the assay on OVCAR-3 ovarian it was 0.032 µM; in the assay on SK-MEL-5 melanoma, 0.0468 µM; in the assay on HCC-2998 colon it was 0.0351 µM; in the assay on MCF7 breast, 0.0373 µM. Also, the GI50 in the assay on OVCAR-8 ovarian is 0.0487 µM; in the assay with NCI-H522 lung it was 0.0286 µM; with U251 CNS, 0.0438 µM; with TK-10 renal, 1.49 µM. Also, the TGI in the assay on MDA-MB-231 breast came to 5.66 µM; with PC-3 prostate, 37.7 µM; with OVCAR-3 ovarian, 1.02 µM; in the assay on SK-MEL-5 melanoma, 0.263 µM; with HCC-2998 colon, 2.12 µM; in the assay on MCF7 breast it was 13.1 µM. For the same compound, the TGI in the assay on OVCAR-8 ovarian is over 100 µM; with NCI-H522 lung it was 2.55 µM; with U251 CNS it was 14.6 µM; in the assay on TK-10 renal it was over 63 µM.
Consider `Cn1c(CCCC(=O)O)nc2cc(N(CCCl)CCCl)ccc21`, for which the GI50 in the assay with MDA-MB-231 breast was over 69.6 µM; in the assay with PC-3 prostate, over 100 µM; with OVCAR-3 ovarian, over 66.2 µM; in the assay with SK-MEL-5 melanoma, over 71.6 µM; with HCC-2998 colon it was over 65.7 µM; in the assay with MCF7 breast, 69.2 µM. Moreover, the GI50 with OVCAR-8 ovarian is over 91.2 µM; in the assay on NCI-H522 lung, over 93 µM; in the assay with U251 CNS, 72.7 µM; in the assay on TK-10 renal, over 91.3 µM. Moreover, the TGI was over 100 µM in the assay on MDA-MB-231 breast; over 100 µM in the assay with PC-3 prostate; over 93.3 µM in the assay on OVCAR-3 ovarian; over 100 µM with SK-MEL-5 melanoma; over 100 µM in the assay with HCC-2998 colon; over 100 µM in the assay with MCF7 breast. Besides, the TGI in the assay on OVCAR-8 ovarian, in the assay with NCI-H522 lung, in the assay with U251 CNS and in the assay with TK-10 renal was over 100 µM in each case.
On to `Cc1cc(O)ccc1C1=NN(c2ccc(S(N)(=O)=O)cc2)C(=O)CC1`, for which the GI50 in the assay on MDA-MB-231 breast is 10.9 µM and 21.8 µM; in the assay with PC-3 prostate, 23.5 µM and 52.1 µM; in the assay with OVCAR-3 ovarian it was 2.69 µM and 8.06 µM; in the assay on SK-MEL-5 melanoma, 2.1 µM and 6.78 µM; in the assay with HCC-2998 colon it was > 50 µM and 63.9 µM; in the assay on MCF7 breast, 2.26 µM and 8.23 µM. In addition, the GI50 in the assay with OVCAR-8 ovarian is 15.4 µM and 46.2 µM; in the assay with NCI-H522 lung, 1.12 µM and 2.48 µM; with U251 CNS, 6.97 µM and 16.1 µM; with TK-10 renal, > 50 µM and 15.9 µM. Further, the TGI in the assay with MDA-MB-231 breast was 50 µM and > 100 µM; in the assay with PC-3 prostate it was 50 µM and > 100 µM; in the assay with OVCAR-3 ovarian it was 29.9 µM and 71 µM; with SK-MEL-5 melanoma, 50 µM and > 100 µM; with HCC-2998 colon, over 100 µM; in the assay on MCF7 breast it was 50 µM and > 100 µM. Also, the TGI in the assay on OVCAR-8 ovarian is 50 µM and > 100 µM; with NCI-H522 lung, 33.5 µM and > 100 µM; in the assay on U251 CNS it was 50 µM and 67 µM; in the assay on TK-10 renal, > 50 µM and 52.7 µM.
In the case of `COC(=O)c1c[nH]c2cc(OC(C)C)c(OC(C)C)cc2c1=O`, the GI50 with MDA-MB-231 breast, in the assay on PC-3 prostate, in the assay with OVCAR-3 ovarian, with SK-MEL-5 melanoma, in the assay on HCC-2998 colon and in the assay on MCF7 breast was over 100 µM each time. Further, the GI50 in the assay with OVCAR-8 ovarian, in the assay on NCI-H522 lung, with U251 CNS and with TK-10 renal was over 100 µM throughout. Moreover, the TGI with MDA-MB-231 breast, in the assay with PC-3 prostate, in the assay on OVCAR-3 ovarian, in the assay with SK-MEL-5 melanoma, with HCC-2998 colon and in the assay with MCF7 breast was over 100 µM in each case. Besides, the TGI in the assay with OVCAR-8 ovarian, in the assay with NCI-H522 lung, with U251 CNS and in the assay with TK-10 renal was over 100 µM throughout.
Consider `NS(=O)(=O)c1ccc(N=Nc2ccc[nH]c2=O)cc1`, for which the TGI in the assay with MDA-MB-231 breast, in the assay on PC-3 prostate, in the assay with OVCAR-3 ovarian, in the assay on SK-MEL-5 melanoma, in the assay with MCF7 breast and with OVCAR-8 ovarian was over 100 µM throughout. Also, the TGI with NCI-H522 lung, with U251 CNS and with TK-10 renal was over 100 µM each time.
Regarding `COc1cccc2c1C(=O)c1c(O)c3c(c(O)c1C2=O)C[C@@](O)(/C(CO)=N/NC(=O)CCCCCN1C(=O)C=CC1=O)C[C@@H]3O[C@H]1C[C@H](N)[C@H](O)[C@H](C)O1`, the GI50 with MDA-MB-231 breast was 1.96 µM; with PC-3 prostate, 1.64 µM; in the assay with OVCAR-3 ovarian, 1.89 µM; in the assay on HCC-2998 colon, 1.5 µM; in the assay with MCF7 breast, 0.147 µM; in the assay on OVCAR-8 ovarian, 1.14 µM. The GI50 with NCI-H522 lung is 0.56 µM; in the assay on U251 CNS, 0.325 µM; with TK-10 renal, 1.68 µM. In addition, the TGI with MDA-MB-231 breast was 44 µM; in the assay with PC-3 prostate, 19.5 µM; with OVCAR-3 ovarian, over 64.4 µM; with HCC-2998 colon, over 58.1 µM; in the assay with MCF7 breast it was over 100 µM; with OVCAR-8 ovarian, 97.4 µM. For the same compound, the results for the TGI with NCI-H522 lung, with U251 CNS and in the assay on TK-10 renal were 4.21 µM, 15.8 µM and over 27.4 µM, respectively.
For the compound `COC(=O)[C@]12CC[C@@H](C)[C@H](C)[C@@H]1C1=CC[C@@H]3[C@@]4(C)C(C=O)=C[C@@](C)(CO)[C@@H]4[C@H](O)C[C@@]3(C)[C@]1(C)CC2`, the GI50 with MDA-MB-231 breast was 7.86 µM; in the assay with PC-3 prostate, 4.14 µM; in the assay with OVCAR-3 ovarian it was 2.54 µM; in the assay with SK-MEL-5 melanoma, 5.8 µM; with HCC-2998 colon, 3.13 µM; in the assay on MCF7 breast, 2.44 µM. The GI50 in the assay with OVCAR-8 ovarian is 3.51 µM; with U251 CNS it was 3.83 µM; in the assay on TK-10 renal, 2.49 µM. Moreover, the TGI in the assay on MDA-MB-231 breast came to 22.3 µM; with PC-3 prostate, 18.5 µM; with OVCAR-3 ovarian, 7.78 µM; in the assay on SK-MEL-5 melanoma, 18.4 µM; in the assay with HCC-2998 colon, 9.45 µM; in the assay with MCF7 breast, 10.3 µM. Further, the TGI in the assay on OVCAR-8 ovarian came out at 14.4 µM; in the assay with U251 CNS it was 13.8 µM; in the assay on TK-10 renal, 9.42 µM.
Turning to `O=C1C=C(NCCO)c2nccc3c2c1nc1ccccc13`, the GI50 in the assay with MDA-MB-231 breast is 24.5 µM; in the assay with PC-3 prostate it was 27.3 µM; in the assay on OVCAR-3 ovarian, 18.6 µM; with SK-MEL-5 melanoma, 16.3 µM; in the assay on MCF7 breast, 20.5 µM; in the assay on OVCAR-8 ovarian, 40 µM. Besides, the results for the GI50 in the assay with NCI-H522 lung, in the assay with U251 CNS and in the assay with TK-10 renal were 22.5 µM, 23.4 µM and 18.7 µM, respectively. The TGI is over 100 µM in the assay on MDA-MB-231 breast; over 100 µM in the assay with PC-3 prostate; 52.6 µM in the assay with OVCAR-3 ovarian; 35 µM in the assay with SK-MEL-5 melanoma; over 100 µM in the assay with MCF7 breast; over 100 µM in the assay on OVCAR-8 ovarian. Further, the TGI was 85 µM in the assay with NCI-H522 lung, over 100 µM in the assay with U251 CNS and 60.8 µM in the assay with TK-10 renal.
On to `C=C1c2nc3ccccc3n2C=C(c2cccc(Cl)c2)N1Cc1ccc(OC)cc1`, for which the GI50 with MDA-MB-231 breast was 0.964 µM; in the assay with PC-3 prostate, 2.21 µM; with SK-MEL-5 melanoma, 0.276 µM; in the assay with HCC-2998 colon, 2.32 µM; in the assay with MCF7 breast, 0.331 µM; in the assay with OVCAR-8 ovarian, 2.43 µM. Moreover, the GI50 was 0.221 µM in the assay on NCI-H522 lung, 0.768 µM with U251 CNS and 6.64 µM with TK-10 renal. The TGI in the assay on MDA-MB-231 breast was over 100 µM; in the assay with PC-3 prostate, over 70.3 µM; in the assay on SK-MEL-5 melanoma, 3.55 µM; with HCC-2998 colon it was 13.5 µM; in the assay on MCF7 breast, over 39.4 µM; in the assay on OVCAR-8 ovarian, over 57.3 µM. Besides, the TGI with NCI-H522 lung was 1.1 µM; with U251 CNS, over 100 µM; in the assay on TK-10 renal, over 64.9 µM.
As to `NCCCNc1nc2ccccc2c2c(=O)c3cc(F)ccc3sc12`, the GI50 in the assay on MDA-MB-231 breast was 1.45 µM; with PC-3 prostate it was 1.45 µM; with OVCAR-3 ovarian, 1.7 µM; in the assay on SK-MEL-5 melanoma it was 1.73 µM; with HCC-2998 colon, 1.64 µM; in the assay on MCF7 breast, 1.4 µM. Moreover, the GI50 in the assay on NCI-H522 lung and with U251 CNS was 1.64 µM throughout. The TGI with MDA-MB-231 breast worked out at 2.9 µM; in the assay on PC-3 prostate, 2.98 µM; in the assay on OVCAR-3 ovarian, 3.25 µM; with SK-MEL-5 melanoma it was 3.13 µM; in the assay with HCC-2998 colon, 3.14 µM; in the assay on MCF7 breast, 2.88 µM. In addition, the TGI is 3.45 µM in the assay with NCI-H522 lung and 3.25 µM in the assay with U251 CNS.
